Results reported in patent publication EP0403242A1, “New L-683,590 microbial transformation product” (Merck & Co., Inc., priority 1989, dated 1990).
“And” between values parts separate entries of the source, which are not always exact repeats. Equal values may be shown once. Read-outs that look alike come from different tables or passages of the source.

Tests used:
mouse T lymphocytes = assay: T-cell proliferation assay (ionomycin plus PMA induced T-cell stimulation, tritiated thymidine uptake); format: cell-based, C57B1/6 mice
Description: The principle of this assay is to measure the proliferation of mouse T lymphocytes stimulated with the combination of ionomycin plus PMA. […] Cells were pelleted by centrifugation at 1500 rpm for 8 minutes. Contaminating red cells were removed by treating the pellet with ammonium chloride lysing buffer (GIBCO) for 2 minutes at 4°C. Cold medium was added and cells were again centrifuged at 1500 rpm for 8 minutes. T lymphocytes were then isolated by separation of the cell suspension on nylon wool columns as follows: Nylon wool columns were prepared by packing approximately 4 grams of washed and dried nylon wool into 20 ml plastic syringes. The columns were sterilized by autoclaving at 250°F for 30 minutes. Nylon wool columns were wetted with warm (37°C) culture medium and rinsed with the same medium. Washed spleen cells resuspended in warm medium were slowly applied to the nylon wool. The columns were then incubated in an upright position at 37°C for 1 hour. Non-adherent T lymphocytes were eluted from the columns with warm culture medium and the cell suspensions were spun as above. […] The cell suspension was immediately distributed into 96 well flat-bottom microculture plates (Costar) at 200 μl/well. […] The proliferation of T lymphocytes was assessed by measurement of tritiated thymidine incorporation. After 44 hours of culturing, the cells were pulse-labelled with 2 μCi/well of tritiated thymidine (NEN, Cambridge, MA). After another 4 hours of incubation, cultures were harvested on glass fiber filters using a multiple sample harvester. Radioactivity of filter discs corresponding to individual wells was measured by standard liquid scintillation counting methods (Betacounter). […]

[1] = Physical characteristics of the fermentation product; format: physicochemical; conditions: qualitative, solvent methanol
Excerpt: White amorphous powder • 2. […] Molecular weight of 763, as determined by electron impact mass spectroscopy and is consistent with the assigned molecular structure in Figure 1.

## C=CC[C@@H]1/C=C(\C)C[C@H](C)C[C@H](OC)[C@H]2O[C@@](O)(C(=O)C(=O)N3CCCC[C@H]3C(=O)O[C@H](/C(C)=C/[C@@H]3CC[C@@H](O)[C@H](OC)C3)[C@H](C)[C@@H](O)CC1=O)[C@H](C)C[C@@H]2OC [L-679,934, reference compound]
Mouse T lymphocytes; Mus musculus, T-lymphocyte, Table 1, L-679,934 1 ng/ml alone (0 ng/ml L-686,292)
  inhibition at 0.001 µg/mL: 99%
Mouse T lymphocytes; Mus musculus, T-lymphocyte, Table 2, L-679,934 (1 ng/ml) alone (0 ng/ml L-686,292)
  inhibition at 0.001 µg/mL: 97.1%
Mouse T lymphocytes; Mus musculus, T-lymphocyte, read-out: IC₅₀ for L-679,934-mediated inhibition
  IC50: 0.00032 µg/mL and 0.4 nM

## CC[C@@H]1/C=C(\C)C[C@H](C)C[C@H](O)[C@H]2O[C@@](O)(C(=O)C(=O)N3CCCC[C@H]3C(=O)O[C@H](/C(C)=C/[C@@H]3CC[C@@H](O)[C@H](O)C3)[C@H](C)[C@@H](O)CC1=O)[C@H](C)C[C@@H]2OC [L-686,292]
[1]
  Solubility: Solubility in methanol
Mouse T lymphocytes; Mus musculus, T-lymphocyte, 48 h, Table 1, L-686,292 only, 31 ng/ml, harvest at 48 hours
  inhibition at 0.031 µg/mL: 0%
Mouse T lymphocytes; Mus musculus, T-lymphocyte, 48 h, Table 1, L-686,292 only, 63 ng/ml, harvest at 48 hours
  inhibition at 0.063 µg/mL: 0%
Mouse T lymphocytes; Mus musculus, T-lymphocyte, 48 h, Table 1, L-686,292 only, 125 ng/ml, harvest at 48 hours
  inhibition at 0.125 µg/mL: 0%
Mouse T lymphocytes; Mus musculus, T-lymphocyte, 48 h, Table 1, L-686,292 only, 250 ng/ml, harvest at 48 hours
  inhibition at 0.25 µg/mL: 0%
Mouse T lymphocytes; Mus musculus, T-lymphocyte, 48 h, Table 1, L-686,292 only, 500 ng/ml, harvest at 48 hours
  inhibition at 0.5 µg/mL: 0%
Mouse T lymphocytes; Mus musculus, T-lymphocyte, 48 h, Table 1, L-686,292 only, 1000 ng/ml, harvest at 48 hours
  inhibition at 1 µg/mL: 0%
Mouse T lymphocytes; Mus musculus, T-lymphocyte, Table 1, L-686,292 31 ng/ml & L-679,934 (1 ng/ml), read-out: % Inhibition
  inhibition at 0.001 µg/mL: 99%
Mouse T lymphocytes; Mus musculus, T-lymphocyte, Table 1, L-686,292 63 ng/ml & L-679,934 (1 ng/ml), read-out: % Inhibition
  inhibition at 0.001 µg/mL: 99%
Mouse T lymphocytes; Mus musculus, T-lymphocyte, Table 1, L-686,292 125 ng/ml & L-679,934 (1 ng/ml), read-out: % Inhibition
  inhibition at 0.001 µg/mL: 96%
Mouse T lymphocytes; Mus musculus, T-lymphocyte, Table 1, L-686,292 250 ng/ml & L-679,934 (1 ng/ml), read-out: % Inhibition
  inhibition at 0.001 µg/mL: 65%
Mouse T lymphocytes; Mus musculus, T-lymphocyte, Table 1, L-686,292 500 ng/ml & L-679,934 (1 ng/ml), read-out: % Inhibition
  inhibition at 0.001 µg/mL: 3%
Mouse T lymphocytes; Mus musculus, T-lymphocyte, Table 1, L-686,292 1000 ng/ml & L-679,934 (1 ng/ml), read-out: % Inhibition
  inhibition at 0.001 µg/mL: 0%
Mouse T lymphocytes; Mus musculus, T-lymphocyte, Table 2, L-686,292 31.3 ng/ml + inhibitor L-679,934 (1 ng/ml), read-out: % Inhibition
  inhibition at 0.001 µg/mL: 93.4%
Mouse T lymphocytes; Mus musculus, T-lymphocyte, Table 2, L-686,292 62.5 ng/ml + inhibitor L-679,934 (1 ng/ml), read-out: % Inhibition
  inhibition at 0.001 µg/mL: 65.7%
Mouse T lymphocytes; Mus musculus, T-lymphocyte, Table 2, L-686,292 125 ng/ml + inhibitor L-679,934 (1 ng/ml), read-out: % Inhibition
  inhibition at 0.001 µg/mL: 0%
Mouse T lymphocytes; Mus musculus, T-lymphocyte, Table 2, L-686,292 1000 ng/ml + inhibitor L-679,934 (1 ng/ml), read-out: % Inhibition
  inhibition at 0.001 µg/mL: 4.7%
Mouse T lymphocytes; Mus musculus, T-lymphocyte, reversal of inhibition by L-679,934 (1 ng/ml), read-out: IC₅₀ of reversal
  IC50: 0.25 µg/mL and 328 nM
Mouse T lymphocytes; Mus musculus, T-lymphocyte, reversal of inhibition by L-679,934, 'generally in the range', read-out: IC₅₀ of reversal, general range
  IC50: 100 to 400 nM
Mouse T lymphocytes; qualitative statement
  L-679,934 antagonist activity: exhibits reversal of L-679,934 mediated inhibition of T-cell activation
